Results published in ChEMBL document CHEMBL1122358, “Synthesis and central dopaminergic activities of (+/-)-hexahydro-7H-indolo[3,4-gh][1,4]benzoxazine derivatives [(+/-)-9-oxaergolines]” (J Med Chem, 1983).

How the values were obtained:
[1] = system: Canis familiaris; assay: Minimum effective dose (sc) to induce emesis in male or female Beagle dogs; type: functional; conditions: Canis lupus familiaris, read-out: MED
[2] = target: Dopamine receptor (Bos taurus, UniProt Q95136+P20288); assay: In vitro binding affinity towards dopamine receptor was determined in bovine anterior pituitary membrane using [3H]dihydroergocriptine as the radioligand; type: cell membranes
[3] = target: Dopamine receptor; assay: In vitro binding affinity towards dopamine receptor was determined in rat striatal membrane using [3H]spiroperidol as the radioligand; type: cell membranes, Striatum
[4] = Lethal dose in male mice (administered ip), activity expressed as LD50 values.; type: toxicity, organism-based; conditions: mouse, in vivo
[5] = system: Rattus norvegicus; assay: Inhibitory activity against plasma prolactin level in male Sprague-Dawley rats after peroral administration (5mg/Kg), activity expressed as mean duration for submaximal inhibition; type: functional
[6] = species: Rattus norvegicus; assay: Minimum effective dose required to decrease striatal DA turnover in rats; type: functional; conditions: read-out: MED
[7] = species: Rattus norvegicus; assay: Minimum effective dose required to induce rotations in rats with unilateral lesion in the nigrostriatal pathway; type: functional; conditions: read-out: MED
[8] = species: Rattus norvegicus; assay: Minimum effective dose required to produce stereotypies in rats; type: functional; conditions: read-out: MED
[9] = species: Rattus norvegicus; assay: Inhibitory activity against prolactin release in rat anterior pituitary cells; type: functional, cell-based; conditions: Pituitary gland cell
[10] = system: Rattus norvegicus; assay: Inhibitory activity against plasma prolactin level in male Sprague-Dawley rats after peroral administration (5mg/Kg), activity expressed as mean duration for submaximal inhibition; Duration 3-6h; type: functional
[11] = system: Rattus norvegicus; assay: Inhibitory activity against plasma prolactin level in male Sprague-Dawley rats after peroral administration (5mg/Kg), activity expressed as mean duration for submaximal inhibition; Duration 4-8h; type: functional
[12] = system: Rattus norvegicus; assay: Inhibitory activity against plasma prolactin level in male Sprague-Dawley rats after peroral administration (5mg/Kg), activity expressed as mean duration for submaximal inhibition; Duration 3-4h; type: functional

## c1cc2c3c(c[nH]c3c1)C[C@H]1NCCO[C@H]21
[1]
  minimal effective dose: > 0.5 mg/kg
[2]
  IC50: 7000 nM
[3]
  IC50: 5000 nM
[4]
  LD50: 150 mg/kg
[5]
  Duration: 3 h
[6]
  minimal effective dose: 1 mg/kg
[7]
  minimal effective dose: 0.5 mg/kg
[8]
  minimal effective dose: 5 mg/kg
[9]
  IC50: 300 nM

## CN1CCO[C@@H]2c3cccc4[nH]c(Br)c(c34)C[C@H]21
[1]
  minimal effective dose: 0.5 mg/kg
[2]
  IC50: 3000 nM
[3]
  IC50: 1000 nM
[4]
  LD50: 35 mg/kg
[10]
  Duration: 3 h
[6]
  minimal effective dose: 1 mg/kg
[7]
  minimal effective dose: 1 mg/kg
[8]
  minimal effective dose: 20 mg/kg
[9]
  IC50: 100 nM

## CCCN1CCO[C@@H]2c3cccc4c3[C@@H](CN4)C[C@H]21
[1]
  minimal effective dose: 0.1 mg/kg
[2]
  IC50: 300 nM
[3]
  IC50: 600 nM
[4]
  LD50: 150 mg/kg
[5]
  Duration: >12 h
[6]
  minimal effective dose: 0.1 mg/kg
[7]
  minimal effective dose: 0.1 mg/kg
[8]
  minimal effective dose: 0.1 mg/kg
[9]
  IC50: 0.1 nM

## CN1CCO[C@@H]2c3cccc4[nH]cc(c34)C[C@H]21
[1]
  minimal effective dose: 0.1 mg/kg
[2]
  IC50: 2500 nM
[3]
  IC50: 800 nM
[11]
  Duration: 4 h
[6]
  minimal effective dose: 0.1 mg/kg
[7]
  minimal effective dose: 0.2 mg/kg
[8]
  minimal effective dose: 0.5 mg/kg
[9]
  IC50: 17 nM

## CCCN1CCO[C@@H]2c3cccc4[nH]cc(c34)C[C@H]21
[1]
  minimal effective dose: 0.01 mg/kg
[2]
  IC50: 40 nM
[3]
  IC50: 70 nM
[4]
  LD50: 150 mg/kg
[5]
  Duration: >22 h
[6]
  minimal effective dose: 0.05 mg/kg
[7]
  minimal effective dose: 0.01 mg/kg
[8]
  minimal effective dose: 0.1 mg/kg
[9]
  IC50: 0.06 nM

## CCCN1CCO[C@@H]2c3cccc4[nH]c(Br)c(c34)C[C@H]21
[1]
  minimal effective dose: > 0.5 mg/kg
[2]
  IC50: 500 nM
[3]
  IC50: 250 nM
[4]
  LD50: > 200 mg/kg
[5]
  Duration: >12 h
[6]
  minimal effective dose: 0.5 mg/kg
[7]
  minimal effective dose: 0.2 mg/kg
[8]
  minimal effective dose: 0.2 mg/kg
[9]
  IC50: 0.2 nM

## CN1CCO[C@@H]2c3cccc4c3c(cn4C)C[C@H]21
[1]
  minimal effective dose: 1 mg/kg
[2]
  IC50: 4800 nM
[3]
  IC50: 4500 nM
[4]
  LD50: > 200 mg/kg
[12]
  Duration: 3 h
[6]
  minimal effective dose: 10 mg/kg
[7]
  minimal effective dose: 2 mg/kg
[8]
  minimal effective dose: 20 mg/kg
[9]
  IC50: > 10000 nM

## CCCN1C[C@H](CSC)C[C@@H]2c3cccc4[nH]cc(c34)C[C@H]21.CS(=O)(=O)O [PERGOLIDE MESYLATE]
[1]
  minimal effective dose: 0.05 mg/kg
[4]
  LD50: 100 mg/kg
[5]
  Duration: >22 h
[6]
  minimal effective dose: 0.05 mg/kg
[7]
  minimal effective dose: 0.02 mg/kg
[8]
  minimal effective dose: 0.1 mg/kg
[9]
  IC50: 0.07 nM
